Tests used:
[1] = Titration of sand/amine/brine mixture with 10% nitric acid, amine in solution by GC (Example 4); conditions: core sand, brine #2, 10 wt % nitric acid
Method: (§1) Concentration of amines, in media and water, were analyzed by gas chromatography (GC). An Agilent Model 5890 (Agilent, Wilmington, Del.), GC equipped with a […] and a split/splitless injector, a DB-FFAP column (30 meter length×0.32 millimeter (mm) depth×0.25 micrometer particle size). […] The system was calibrated using a sample of N,N-Dimethyl-1-Dodecaneamine (Aldrich). Helium was used as the carrier gas. A temperature gradient of 50 degrees Celsius (° C.) to 250° C. at 30° C. increase per minute (min) was used. Retention times (in minutes, min) for various chemicals of interest included: N,N-Dimethyl-1-Dodecaneamine (8.08 min); N,N-Dimethyl-1-Tetradecaneamine (8.85 min); N,N-Dimethyl-1-Hexadecane-amine (9.90 min); N,N-Dimethyl-1-Octadecaneamine (10.26 min) and N-Methyl,N-Benzyl)-1-Tetradecaneamine (11.40 min).
The procedure outlined in Example 2 was used to produce the sand/amine mixture except that 519 mg of the amine, 10 gr of Pentane. and 60.062 gr of sand from the Oa and Ob layers were used. 29.065 gr of this sand/amine mixture was added to 100 ml of brine #2 (Table 3) to create the sand/amine/brine mixture. […] 0.1 ml of 10 weight percent (wt %) nitric acid in water was added to this solution, and the pH and the amine concentration were measured again.

[2] = Titration of amine coated core sand in brine #2 with 1N HCl, amine in solution by GC (Example 2); type: physicochemical; conditions: brine #2, 1N HCl
Method: Helium was used as the carrier gas.
38 milligrams (mg) of N N-Dimethyl-1-Dodecanamine (hereafter referred to as “the amine”) was added to 10.210 gr of Pentane. This solution was added to 10.1845 gr of specific sand layers (Oa and Ob) obtained from the Schrader Bluff formation of the Milne Point Unit of the Alaskan North slope. The oil content of the sand was first removed using a mixture of methanol and toluene (50/50, volume/volume) as solvent washes. The solvent mixture was subsequently evaporated off the core sand to produce clean, dry, flowable core sand. This sand was mixed with the amine and pentane solution to produce a slurry. This slurry was thoroughly mixed and the pentane was evaporated off leaving the amine on the sand (hereafter referred to as sand/amine mixture). 100 ml of brine #2 (Table 3) was added to the sand/amine mixture to create the sand/amine/brine mixture. […] The fact that the amine was not detected underlined its strong binding to the sand particles. […] The data underlines the remarkable efficiency of an acid at ionizing and removing the amine from the sand.

[3] = Titration of sand/amine/brine mixture with 10% acetic acid, amine in solution by GC (Example 5); conditions: core sand, brine #2, 10 wt % acetic acid
Method: as §1
The same procedure outlined in Example 4 was repeated here to produce the sand/amine mixture. 30.85 grams (gr) of the sand/amine mixture was added to 100 ml of brine #2 (Table 3) to create the sand/amine/brine mixture.

CCCCCCCCCCCCN(C)C [N-N-dimethyl-1-dodeanamine, N N-Dimethyl-1-Dodecanamine]
pH of complete ionization and solubilization in the water of the amine [1]: < 6.7 pH
pH of complete ionization and solubilization of the amine in the water [2]: < 6.0 pH
pH of complete ionization and solubilization in the water of the amine [3]: < 6.7 pH
